The results in this text go back to ChEMBL document CHEMBL1201862, “PubChem BioAssay data set” (2004).

Each structure is given as a SMILES string. Activity calls are given as the source filed them.

Format in all cases: functional
Test [1] concerns the target T1, High affinity choline transporter 1 (Homo sapiens, UniProt Q9GZV3).
T1 sequence (Q9GZV3 whole entry): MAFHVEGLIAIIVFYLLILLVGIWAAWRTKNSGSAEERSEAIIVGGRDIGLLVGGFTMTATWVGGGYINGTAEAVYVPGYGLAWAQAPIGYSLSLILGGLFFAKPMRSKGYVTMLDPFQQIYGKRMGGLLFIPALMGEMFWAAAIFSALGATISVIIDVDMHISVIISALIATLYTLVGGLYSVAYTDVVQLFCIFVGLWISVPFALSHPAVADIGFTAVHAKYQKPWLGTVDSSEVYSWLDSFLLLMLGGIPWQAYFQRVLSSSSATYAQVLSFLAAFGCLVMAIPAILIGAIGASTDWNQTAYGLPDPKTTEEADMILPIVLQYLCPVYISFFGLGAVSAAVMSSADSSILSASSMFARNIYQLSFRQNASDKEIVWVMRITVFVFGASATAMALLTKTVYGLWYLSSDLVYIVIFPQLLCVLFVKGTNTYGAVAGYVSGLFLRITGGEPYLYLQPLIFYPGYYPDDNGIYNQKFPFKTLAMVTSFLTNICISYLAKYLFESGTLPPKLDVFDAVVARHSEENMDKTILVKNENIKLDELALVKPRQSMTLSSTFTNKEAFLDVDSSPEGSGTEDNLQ
As to the kind of experiment: CHT inhibitors, dose response, cell-based, 10-point CRC, membrane potential dye (AID 588401).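 Further: membrane potential dye fluorescence of choline-evoked depolarization via CHT.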

Test [2] deals with T1, High affinity choline transporter 1. Kind of test: CHT inhibitors, dose response, cell-based, 5-point CRC, membrane potential dye (AID 504840).
In test [3] the target is T2, Neuropeptides B/W receptor type 1 (Homo sapiens, UniProt P48145).
T2 sequence (P48145 whole entry): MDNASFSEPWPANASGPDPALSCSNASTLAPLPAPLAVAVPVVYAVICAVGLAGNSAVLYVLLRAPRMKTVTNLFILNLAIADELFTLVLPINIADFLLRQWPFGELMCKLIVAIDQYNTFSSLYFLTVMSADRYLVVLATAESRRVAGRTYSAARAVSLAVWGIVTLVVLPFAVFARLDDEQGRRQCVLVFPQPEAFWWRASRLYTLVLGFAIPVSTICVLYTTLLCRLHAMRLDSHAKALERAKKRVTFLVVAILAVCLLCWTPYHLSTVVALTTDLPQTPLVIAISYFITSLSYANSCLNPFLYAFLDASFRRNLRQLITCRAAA
Kind of test: GPR7 antagonist potency, late-stage follow-up, cell-based, fluorescence, dose response, set 5 (AID 588566).

The target in test [4] is Melanin-concentrating hormone receptor 1 (Homo sapiens, UniProt Q99705). As to the kind of experiment: Late-stage fluorescence-based counterscreen for antagonists of the G-protein coupled receptor 7 (GPR7): cell-based dose response assay to identify antagonists of the melanin-concentrating hormone receptor 1 (MCHR1) Set 5. (In general: Counterscreens check selectivity or assay interference.)

Test [5] in a line: SAR analysis of small molecule activators of Apaf-1 using a LZ-Caspase-9/Caspase-3 Fluorescent Selectivity assay - Set 2. The following applies: read-out: EC50_Mean.
In test [6] the target is T3, Apoptotic protease-activating factor 1 (Homo sapiens, UniProt O14727).
T3 sequence (O14727 whole entry): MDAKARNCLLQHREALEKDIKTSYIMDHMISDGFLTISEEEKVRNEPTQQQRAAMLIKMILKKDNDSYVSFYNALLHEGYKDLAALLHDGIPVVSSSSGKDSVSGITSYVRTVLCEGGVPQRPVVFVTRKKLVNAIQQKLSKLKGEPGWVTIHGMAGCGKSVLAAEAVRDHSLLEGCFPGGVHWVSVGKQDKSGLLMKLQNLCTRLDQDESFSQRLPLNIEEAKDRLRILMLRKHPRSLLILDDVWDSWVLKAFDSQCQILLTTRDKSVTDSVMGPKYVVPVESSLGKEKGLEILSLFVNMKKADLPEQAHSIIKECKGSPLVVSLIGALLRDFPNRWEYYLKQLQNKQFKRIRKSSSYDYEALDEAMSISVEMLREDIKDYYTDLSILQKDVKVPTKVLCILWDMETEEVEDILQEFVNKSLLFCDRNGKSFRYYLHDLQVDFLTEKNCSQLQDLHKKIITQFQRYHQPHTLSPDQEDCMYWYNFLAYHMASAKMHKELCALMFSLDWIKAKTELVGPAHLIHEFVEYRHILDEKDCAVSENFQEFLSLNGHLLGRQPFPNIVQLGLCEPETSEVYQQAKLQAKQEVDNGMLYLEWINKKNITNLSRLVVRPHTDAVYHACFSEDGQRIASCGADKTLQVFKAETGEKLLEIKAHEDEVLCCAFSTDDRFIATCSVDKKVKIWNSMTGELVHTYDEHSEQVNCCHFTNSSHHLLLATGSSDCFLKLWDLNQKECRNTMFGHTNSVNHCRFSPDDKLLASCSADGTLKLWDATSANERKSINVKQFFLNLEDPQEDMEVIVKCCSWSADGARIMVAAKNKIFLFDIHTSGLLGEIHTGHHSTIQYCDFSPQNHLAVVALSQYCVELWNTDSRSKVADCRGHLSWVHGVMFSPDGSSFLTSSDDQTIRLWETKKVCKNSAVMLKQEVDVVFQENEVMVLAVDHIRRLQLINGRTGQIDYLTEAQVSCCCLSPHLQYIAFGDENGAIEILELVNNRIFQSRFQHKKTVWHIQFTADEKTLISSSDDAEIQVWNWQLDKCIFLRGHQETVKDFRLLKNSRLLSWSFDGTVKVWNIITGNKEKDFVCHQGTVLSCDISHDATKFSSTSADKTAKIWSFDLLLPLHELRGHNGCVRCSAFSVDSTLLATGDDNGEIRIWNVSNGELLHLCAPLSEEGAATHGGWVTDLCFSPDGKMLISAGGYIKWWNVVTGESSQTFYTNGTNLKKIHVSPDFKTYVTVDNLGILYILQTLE
Kind of test: SAR analysis of small molecule Activators of Apaf-1 in a Fluorescent assay - set 2. The following applies: read-out: EC50_Mean.

Melanin-concentrating hormone receptor 1, sequence (Q99705 whole entry): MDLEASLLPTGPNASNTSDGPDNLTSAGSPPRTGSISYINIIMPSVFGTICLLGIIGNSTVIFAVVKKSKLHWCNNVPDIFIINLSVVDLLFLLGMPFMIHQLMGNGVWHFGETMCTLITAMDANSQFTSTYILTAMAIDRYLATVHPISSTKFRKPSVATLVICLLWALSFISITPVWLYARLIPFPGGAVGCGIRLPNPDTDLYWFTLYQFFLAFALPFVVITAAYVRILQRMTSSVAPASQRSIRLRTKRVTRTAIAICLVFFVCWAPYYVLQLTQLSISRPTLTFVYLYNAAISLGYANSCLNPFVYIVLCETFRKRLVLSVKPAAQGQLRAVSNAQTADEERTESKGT

As for `Cc1nnc(NCc2cccc(Cl)c2)c2ccccc12`, the figures for the IC50 in test [1] and in test [2] were 4.74 µM (active) and 9.8 µM (active), respectively.

For `COc1c(F)cc(Oc2c(Cl)cnn(Cc3cccc4ccccc34)c2=O)cc1Cl`, the results for the IC50 in test [3] and in test [4] were 5.05 µM (active) and 11.2 µM (inactive), respectively.

In the case of `CC(CNC(C)c1ccccc1)C(=O)O` (stereo unspecified), the EC50 was > 100 µM (inactive) in test [5] and 80.6 µM (active) in test [6].

The IC50 is the concentration that inhibits the measured activity by half.
